In publication PMC7662321, “Andrographolide and Its 14-Aryloxy Analogues Inhibit Zika and Dengue Virus Infection” (Molecules, 2020):
Read-outs that look alike come from different tables or passages of the source.

Assays:
DENV 2 [1] = test system: DENV 2; set-up: method as in PMID 30396090; conditions: HeLa cells; read-out: EC50 towards DENV 2; cited from earlier work
[2] = set-up: method as in PMID 11081986; conditions: cited from earlier work
DENV 2 [3] = test system: DENV 2; set-up: method as in PMID 30396090; conditions: HepG2 cells; read-out: EC50 towards DENV 2; cited from earlier work
[4] = MTT cytotoxicity assay in HEK293T/17 cells; assay type: cell-based; conditions: human, HEK293T/17 cells (human embryonic kidney), 24 h post-treatment
Experimental: Cytotoxicity of each compound towards cells for four selected cell lines in the range of 1 to 500 µM was evaluated using the MTT (3-(4,5-dimethylthiazol-2-yl)-2,5-diphenyltetrazolium bromide) assay at 24 h post-treatment, in parallel with control and vehicle-treated cells (0.1% dimethyl sulfoxide (DMSO)). The 50% cytotoxic concentration (CC50) values calculated from the dose-response curve (Supplementary Figures S2–S5) are shown in Table 1. Overall, a range of cytotoxicities were seen from the four compounds across the […]. The most cytotoxic combination was ZAD-1 and BHK-21 cells, while the least cytotoxic combination was andrographolide and BHK-21 cells (Table 1).
A549 cells were cultured in ninety-six-well tissue culture plates under standard conditions until the cells reached 90% confluence. The cell culture medium was removed and then cells were incubated with various concentrations of andrographolide (1–100 μM) diluted in complete medium with FBS prior to being cultured for 24 h under standard conditions before analysis using either the Vybrant MTT Cell proliferation assay kit (V13154, Invitrogen) or the alamarBlue (Thermo Fischer Scientific, Waltham, MA, USA) assay kit according to the manufacturers recommendations. Values were determined from 8 (MTT assay) or 3 (alamarBlue) independent replicates. Negative controls (only media and media with 0.1% DMSO) and positive controls (5% DMSO) were included. To determine cell number, cell cultures were trypsinized by the addition of 0.25% Trypsin/0.1% ethylelediaminetetraacetic acid (EDTA) for 3 min and then cell suspensions were diluted with 0.4% trypan blue solution. Cells were counted using a hemocytometer. Cell morphology was additionally observed under an inverted microscope after 24 h treatment with various concentrations of each compound.
Figu re S5. Cytotoxicity of ZAD -1 (A), ZA D-2 (B), ZA D-3 (C), and andro grapholide (D) to HEK293T/17 (human embryonic kidney) cells.
HEK293T/17 cells were incubated with various concentrations of each compound for 24 hrs followed by MTT cell viability assay. The experiment was undertaken independently in 4 replicates. DMSO at the same concentrations was used as a control.
10% ethanol, PBS, and milli- Q water were used as a positive control of cell death. […]

Row | SMILES | EC50 (DENV 2 [1]) | bioavailability [2] | EC50 (DENV 2 [3]) | CC50 at 24 h [4]
1 | C=C1CC[C@@H]2[C@](C)(CO)[C@H](O)CC[C@@]2(C)[C@@H]1C/C=C1/C(=O)OC[C@H]1O [Andrographolide] | 22.7 µM | relatively poor | 21.3 µM | 294 ± 96 µM
2 | C=C1CC[C@@H]2[C@]3(C)COC(C)(C)O[C@@H]3CC[C@@]2(C)[C@@H]1C/C=C1/C(=O)OC[C@@H]1Oc1c(Cl)cc(Cl)c2ccc(C)nc12 [ZAD-1] |  |  |  | 149 ± 40 µM
